Here are results for 7 compounds from patent US10689367B2, “Triazole pyridyl compounds as agonists of the APJ receptor” (AMGEN INC., priority 2016, dated 2020).

One may read the EC50 as the concentration giving half of the maximal effect.

One test relates to heart failure rats. Kind of test: Cardiac function in heart failure rats in vivo with ACE inhibitor captopril, with or without APJ agonist. To be noted: captopril alone, acute settings. Further details: species or system rat. The source says:
The interaction between […] (ACE2) and Apelin biology is complicated. To investigate the interaction between the Apelin-APJ and ACE signalling pathways, we examined the improvement in cardiac function with APJ small molecule agonists in the presence of ACE inhibitor captopril in heart failure rats in vivo. […] However, in the presence of an APJ agonist, there was a shift in potency to the left with marked improvement in contractility and ejection fraction without changes in heart rate. These findings provide a new reference for the understanding of the regulation of ACE2 for the renin angiotensin aldosterone system (RAAS), independent of AT1R signaling and offer new potential drug targets for the treatment of diseases such as hypertension and heart failure. This work clearly establishes that combination of an agonist of the APJ receptor with an ARB such as losartan and/or with an ACE inhibitor such as captopril which may play an important role in providing greater efficacy in treating heart failure patients, for example in improving contractility and ejection fraction without changing the heart rate.
Take `C[C@H](CS)C(=O)N1CCC[C@H]1C(=O)O` [Captopril, captopril]: the “improvement in contractility or ejection fraction” value is listed as “does not show a marked improvement in contractility or ejection fraction”.

In another test the target is human APJ receptor (Homo sapiens (Human), UniProt P35414). Kind of test: [35S]GTPγS binding assay on membranes from CHO cells stably expressing human APJ receptor. The format is biochemical. To be noted: membranes of CHO cells stably expressing human APJ receptor, read-out: Activity hAPJ SPA EC50 IP. The procedure, abridged: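 [35S]GTPγS binding measured on membranes from CHO cells stably expressing FLAG-tagged human APJ, with GDP, MgCl2 and NaCl levels optimized beforehand. Incubation 90 min at RT, imager read-out; EC50 from non-linear regression, averaged over several independent experiments.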
Sequence of human APJ receptor (P35414 whole entry): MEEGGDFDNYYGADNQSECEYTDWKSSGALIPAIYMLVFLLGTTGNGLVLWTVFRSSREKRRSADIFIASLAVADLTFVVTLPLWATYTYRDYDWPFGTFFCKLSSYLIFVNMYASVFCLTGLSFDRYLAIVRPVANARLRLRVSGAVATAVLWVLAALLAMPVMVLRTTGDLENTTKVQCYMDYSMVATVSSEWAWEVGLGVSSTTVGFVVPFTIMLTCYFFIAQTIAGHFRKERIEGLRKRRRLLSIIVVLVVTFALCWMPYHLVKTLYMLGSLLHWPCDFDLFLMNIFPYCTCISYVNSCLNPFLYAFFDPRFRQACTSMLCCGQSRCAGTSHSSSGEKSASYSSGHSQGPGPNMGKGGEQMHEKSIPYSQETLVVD
On the technique in general: GTPγS resists hydrolysis and so accumulates on activated G proteins.
Consider `COCC(COC)n1c(NS(=O)(=O)[C@@H](C)[C@H](OC)c2cnc(OC)cn2)nnc1-c1cccc(OC)n1` [Example 101.0], for which the concentration giving a half-maximal response (EC50) stood at 8.9 nM.

On to `COc1cccc(-c2nnc(NS(=O)(=O)[C@@H](C)[C@H](OC)c3ncc(Cl)cn3)n2CC2CCC2)n1` [Example 73.0], for which the concentration for a half-maximal effect (EC50) was found to be 3 nM. On the same count and under the same terms, then `COc1cccc(-c2nnc(NS(=O)(=O)[C@@H](C)[C@H](OC)c3ncc(Cl)cn3)n2[C@H](C)c2cnn(C)c2)n1` (single isomer, unassigned) [Example 339.0, (1R,2S)-1-(5-chloropyrimidin-2-yl)-1-methoxy-N-(5-(6-methoxypyridin-2-yl)-4-((R)-1-(1-methyl-1H-pyrazol-4-yl)ethyl)-4H-1,2,4-triazol-3-yl)propane-2-sulfonamide or (1R,2S)-1-(5-chloropyrimidin-2-yl)-1-methoxy-N-(5-(6-methoxypyridin-2-yl)-4-((S)-1-(1-methyl-1H-pyrazol-4-yl)ethyl)-4H-1,2,4-triazol-3-yl)propane-2-sulfonamide], with 3.1 nM; and `COc1cccc(-c2nnc(NS(=O)(=O)[C@@H](C)[C@@H](OC(C)C)c3ncc(C)cn3)n2[C@@H](C)[C@H]2CCCO2)n1` (single isomer, unassigned) [Example 273.0], with 23 nM; and `COC[C@H](C)n1c(NS(=O)(=O)[C@@H](C)[C@H](C)c2ncc(Cl)cn2)nnc1-c1cncc(C)c1` [Example 176.0, (2S,3R)-3-(5-chloro-2-pyrimidinyl)-N-(4-((2S)-1-methoxy-2-propanyl)-5-(5-methyl-3-pyridinyl)-4H-1,2,4-triazol-3-yl)-2-butanesulfonamide], with 110 nM. Same read-out and setting: then `COc1cccc(-c2nnc(NS(=O)(=O)[C@@H](C)[C@H](OC)c3ncc(Cl)cn3)n2CCOC(F)F)n1` [Example 43.0], with 3.7 nM.
